Consider 10 molecules from US8637463B2, “Peptide inhibiting angiotensin converting enzyme” (Meiji Dairies Corporation, priority 2003, dated 2014).

Where a SMILES comes first, the peptide text is derived from it. Where no end group is shown, it is not given here.

Chain of Angiotensin Converting Enzyme (P12821 30-1306, species assumed): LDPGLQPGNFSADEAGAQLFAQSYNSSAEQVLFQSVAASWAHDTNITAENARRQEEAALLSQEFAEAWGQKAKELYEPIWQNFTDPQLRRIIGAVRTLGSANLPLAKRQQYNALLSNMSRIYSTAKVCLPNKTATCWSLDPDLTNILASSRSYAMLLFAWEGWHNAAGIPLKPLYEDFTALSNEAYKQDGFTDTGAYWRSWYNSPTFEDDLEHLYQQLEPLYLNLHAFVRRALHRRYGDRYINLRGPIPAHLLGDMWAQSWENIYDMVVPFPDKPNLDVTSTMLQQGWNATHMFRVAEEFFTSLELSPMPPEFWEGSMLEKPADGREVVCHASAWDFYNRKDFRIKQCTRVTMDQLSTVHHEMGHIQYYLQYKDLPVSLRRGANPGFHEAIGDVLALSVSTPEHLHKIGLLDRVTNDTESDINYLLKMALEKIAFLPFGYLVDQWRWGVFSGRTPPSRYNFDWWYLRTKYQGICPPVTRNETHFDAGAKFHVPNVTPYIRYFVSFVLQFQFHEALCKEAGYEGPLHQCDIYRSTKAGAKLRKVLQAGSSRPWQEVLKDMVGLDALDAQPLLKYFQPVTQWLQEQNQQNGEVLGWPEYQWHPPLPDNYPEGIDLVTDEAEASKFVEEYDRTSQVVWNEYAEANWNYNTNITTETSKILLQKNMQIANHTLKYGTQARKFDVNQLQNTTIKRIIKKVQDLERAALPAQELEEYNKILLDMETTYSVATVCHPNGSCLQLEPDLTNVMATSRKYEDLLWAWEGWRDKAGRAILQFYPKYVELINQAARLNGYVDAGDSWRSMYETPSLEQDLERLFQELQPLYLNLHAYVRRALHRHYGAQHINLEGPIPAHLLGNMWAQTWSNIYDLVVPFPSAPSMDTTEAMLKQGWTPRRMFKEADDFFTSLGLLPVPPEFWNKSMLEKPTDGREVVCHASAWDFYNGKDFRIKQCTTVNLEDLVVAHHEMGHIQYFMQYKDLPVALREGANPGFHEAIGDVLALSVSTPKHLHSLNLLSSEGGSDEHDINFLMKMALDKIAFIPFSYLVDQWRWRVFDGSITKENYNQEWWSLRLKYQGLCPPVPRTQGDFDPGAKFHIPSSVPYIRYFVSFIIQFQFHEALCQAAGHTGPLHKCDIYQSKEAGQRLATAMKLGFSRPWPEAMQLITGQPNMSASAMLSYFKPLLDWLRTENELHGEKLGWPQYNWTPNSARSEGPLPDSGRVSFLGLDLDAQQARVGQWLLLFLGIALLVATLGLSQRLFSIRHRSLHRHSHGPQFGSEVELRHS
Chain of ACE (P12821 30-1306, species assumed): as above

One assay addresses Angiotensin Converting Enzyme (Homo sapiens, UniProt P12821). In words: ACE inhibitory activity with Hippuryl-His-Leu substrate, absorbance at 228 nm. In kind it is biochemical. Conditions: peptides having Met-Ala-Pro as a partial structure, same method as Example 2; Table 2. On the procedure:
Each of the peptides of SEQ ID NOs:1 to 7 was synthesized using an automatic peptide synthesizer. It was confirmed by reverse phase HPLC that the purity of each of the thus obtained peptides is 95%. Each of these synthetic peptides was dissolved in 0.1 M borate buffer (pH 8.3). Subsequently, 0.1 ml of an enzyme solution (Angiotensin Converting Enzyme: 2 units/ml) and 0.04 ml of each of the sample solutions were mixed therewith, followed by heating to 37° C. A 0.1 ml portion of a substrate solution (Hippuryl-His-Leu; N-Benzoyl-Gly-His-Leu) was added thereto, followed by thorough stirring. After allowing the mixture to react at 37° C. for 60 minutes, the reaction was stopped by adding 0.13 ml of 1 N hydrochloric acid. Then, 0.85 ml of ethyl acetate was added thereto, followed by shaking for 1 minute, and then the mixture was centrifuged at 3,000 rpm for 10 minutes. A 0.7 ml portion of the supernatant was recovered, and the solvent was removed using a centrifugal evaporator (about 30 minutes). The residual matters were dissolved by adding 0.5 ml of distilled water, and the absorbance at a wavelength of 228 nm was measured.
The activity of inhibiting ACE (%) was calculated by the following mathematical expression 1. Activity of inhibiting ACE(%)={(A−B)−(C−D)}/(A−B)×100 Mathematical expression 1
In this connection, A in the expression is absorbance of the control when the enzyme is used, B is the absorbance of the control when the enzyme is not used, C is absorbance of the sample when the enzyme is used, and D is absorbance of the sample when the enzyme is not used. In addition, 0.1 M borate buffer was used in the control instead of the sample solution.
Based on the thus obtained ACE inhibitory activities, IC50 of each peptide was calculated.
ACE inhibitory activities (%) of the 4 peptides, Leu-Met-Ala-Pro (SEQ ID NO:4), Arg-Met-Ala-Pro (SEQ ID NO:5), Met-Ala-Pro-Pro (SEQ ID NO:6) and Arg-Met-Ala-Pro-Pro (SEQ ID NO:7), which have Met-Ala-Pro as a partial structure, were obtained by the same method of Example 2, and their IC50's were calculated.
For the molecule `CSCC[C@H](NC(=O)[C@@H](N)CCCNC(=N)N)C(=O)N[C@@H](C)C(=O)N1CCC[C@H]1C(=O)O` [Arg-Met-Ala-Pro] (H-RMAP-OH; N-terminus and C-terminus assumed), the IC50 was found to be 24 µM.

As for `CSCC[C@H](NC(=O)[C@@H](N)CC(C)C)C(=O)N[C@@H](C)C(=O)N1CCC[C@H]1C(=O)O` [Leu-Met-Ala-Pro] (H-LMAP-OH; N-terminus and C-terminus assumed), the IC50 is 27.9 µM.

`CSCC[C@H](N)C(=O)N[C@@H](C)C(=O)N1CCC[C@H]1C(=O)N1CCC[C@H]1C(=O)O` [Met-Ala-Pro-Pro] (H-MAPP-OH; N-terminus and C-terminus assumed) showed an IC50 of 28.3 µM.

As for RMAPP [Arg-Met-Ala-Pro-Pro], inhibition was half-maximal at 255 µM (IC50).

Still in this assay, the particulars now being: synthetic peptide, 0.1 M borate buffer pH 8.3, 37° C., 60 minutes; Table 1.
Molecule `CC[C@H](C)[C@H](N)C(=O)N[C@@H](CCC(N)=O)C(=O)N[C@@H](C)C(=O)O` [Ile-Gln-Ala] (H-Ile-Gln-Ala-OH; N-terminus and C-terminus assumed) came in with a 50% inhibitory concentration (IC50) of 64.1 µM.

As to `CC[C@H](C)[C@H](N)C(=O)N[C@@H](Cc1c[nH]cn1)C(=O)N[C@@H](C)C(=O)O` [Ile-His-Ala] (H-Ile-His-Ala-OH; N-terminus and C-terminus assumed), the IC50 was 394 µM.

Another assay addresses ACE (Homo sapiens, UniProt P12821).
Assay: not given
As to conditions: known ACE-inhibiting peptides from casein and corn protein α-zein; cited from earlier work.
Turning to “Ile-Pro-Pro [IPP, casein-derived peptide]”, the 50% inhibitory concentration (IC50) was 5 µM.

As for “Leu-Gln-Pro [LQP, corn protein α-zein-derived peptide]”, the IC50 is 2 µM.

With “Val-Ala-Pro [VAP, casein-derived peptide]”, the IC50 was 2 µM.

Turning to Val-Pro-Pro [VPP], the IC50 was 9 µM.

In general, IC50 refers to the concentration that gives 50% inhibition.
